Test results from US20190117655A1, “Treatment of Biliary Duct Cancer” (ASLAN Pharmaceuticals PTE LTD, priority 2015, published 2019).
Like-named read-outs stand apart in the source and are kept apart here.

Experiments:
[1] = tested on: stage IV cholangiocarcinoma; assay: Example 3: person, stage IV cholangiocarcinoma, Varlitinib with cisplatin/capecitabine; type: in vivo, human; details: Varlitinib 400 mg bi-daily, cisplatin and capecitabine
Protocol: A person with stage IV cholangiocarcinoma (3 lesions) had progressive disease following treatment with: • radiotherapy, and • gemcitabine (Gemzar®) and cisplatin—6 months. […] The cisplatin and capecitabine regime was cisplatin 80 mg/m^2 IV infusion and capecitabine 1000 mg/m^2 orally twice daily for 14 days every 3 weeks.

[2] = tested on: stage IV cholangiocarcinoma; assay: Example 4: person, stage IV cholangiocarcinoma, Varlitinib 500 mg with cisplatin/capecitabine; type: in vivo, human; details: after treatment cycle 2; Varlitinib 500 mg bi-daily, cisplatin and capecitabine
Protocol: A person with stage IV cholangiocarcinoma had progressive disease following treatment with radiotherapy and bi-weekly 5-FU. […] The cisplatin and capecitabine regime was cisplatin 80 mg/m^2 IV infusion and capecitabine 1000 mg/m^2 orally twice daily for 14 days every 3 weeks.

[3] = tested on: treatment naïve advanced or metastatic biliary tract cancer (BTC); type: in vivo; details: for Median progression-free survival (PFS): at data cut-off
Protocol: The primary objectives for the phase Ib study are to determine the maximum tolerated dose (MTD) and to characterize the safety profile of varlitinib when given with gem/cis. Secondary objectives include evaluation of preliminary efficacy of the study regimen and to evaluate the pharmacokinetics of varlitinib, and any circulating metabolites. A modified 3+3+3 escalation design was used, with 2 varlitinib dose levels (200 and 300 mg twice daily) combined with cisplatin (25 mg/m^2, IV for 2 hours), followed by Gemcitabine (1000 mg/m^2, 30-minute infusion) on Day 1 and Day 8 in a 3 weeks cycle.

[4] = tested on: stage IV cholangiocarcinoma; assay: Example 1: person, stage IV EGFR positive cholangiocarcinoma, Varlitinib monotherapy; type: in vivo, human
[5] = tested on: advanced or metastatic biliary tract cancer; assay: Example 10: Phase 2A single arm study of varlitinib plus capecitabine in Chinese patients (NCT03231176); type: in vivo, human; details: Varlitinib 300 mg BID plus capecitabine 1000 mg/m^2 BID 2 weeks on, 1 week off; ongoing study
Protocol: This study is to assess the efficacy of varlitinib (300 mg twice daily in a 21-day cycle) plus capecitabine (1,000 mg/m^2 twice daily for 2 weeks followed by a 7-day rest period) in patients with advanced or metastatic BTC.
Primary Objective: • To assess the efficacy of varlitinib plus capecitabine in patients with advanced or metastatic biliary tract cancer who progressed on first line of systemic therapy as measured by Objective Response Rate (ORR) based on RECIST v1.1.
Secondary Objectives: • To evaluate the efficacy of varlitinib plus capecitabine, as measured by duration of confirmed response (DoR), progression-free survival (PFS), overall survival (OS) and disease control rate (DCR) • To assess the safety and tolerability of varlitinib when combined with capecitabine
A phase 2A, single arm, multicentre study of varlitinib plus capecitabine in Chinese patients with advanced or metastatic biliary tract cancer who progressed on at least 1 line of systemic therapy.
The Study duration is divided into 3 different stages.
• Have histologically or cytologically confirmed advanced (unresectable) or metastatic BTC, including intrahepatic or extrahepatic CCA, gallbladder cancer and carcinoma of Ampulla of Vater. […]

[6] = tested on: intrahepatic cholangiocarcinoma, stage IV; assay: Example 8: person, stage IV intrahepatic cholangiocarcinoma, Varlitinib with mFOLFOX6 then monotherapy (ASLAN001-002SG); type: in vivo, human; details: after cycle 18
Text: They received left hemihepatectomy followed by 6 cycles of adjuvant gemcitabine and cisplatin.

[7] = Combination of Varlitinib and Herceptin versus either alone; details: Varlitinib in combination with Herceptin (trastuzumab)
Text: In one embodiment the compound of formula (I), such as Varlitinib, is employed in combination with at least one further HER inhibitor, for example a combination of Varlitinib and Herceptin (trastuzumab) and/or pertuzumab.

[8] = Cohort of 200 mg BID, with gem/cis
[9] = Cohort of 300 mg BID, with gem/cis
[10] = after treatment cycle 6, Varlitinib 400 mg bi-daily monotherapy

C[C@@H]1COC(Nc2ccc3ncnc(Nc4ccc(OCc5nccs5)c(Cl)c4)c3c2)=N1 [Varlitinib, (R)—N4-[3-Chloro-4-(thiazol-2-ylmethoxy)-phenyl]-N6-(4-methyl-4,5,-dihydro-oxazol-2-yl)-quinazoline-4,6-diamine]
Tolerability [1]: well tolerated
Response ([1]; after treatment cycle 6): 85.77%
Dose limiting toxicity ([1]; first two treatment cycles): No dose limiting toxicity was observed
Response [2]: 4%
Median progression-free survival (PFS) ([3]; 200 mg cohort, with gem/cis): 238 days
Median progression-free survival (PFS) ([3]; 300 mg cohort, with gem/cis): not reached
DCR overview: Complete Response, patients ([3]; All, with gem/cis): 0
DCR overview: Non-responders, patients ([3]; All, with gem/cis): 4
DCR overview: PD, patients ([3]; All, with gem/cis): 0
DCR overview: Partial Response, patients ([3]; All, with gem/cis): 7
DCR overview: Responders, patients ([3]; All, with gem/cis): 17
DCR overview: Responders, share of evaluable patients ([3]; All, with gem/cis): (81.0%)
DCR overview: SD (≤12 weeks), patients ([3]; All, with gem/cis): 2
DCR overview: SD (≥12 weeks), patients ([3]; All, with gem/cis): 10
ORR overview: Complete Response, patients ([3]; All, with gem/cis): 0
ORR overview: PD, patients ([3]; All, with gem/cis): 0
ORR overview: Partial Response, patients ([3]; All, with gem/cis): 7
ORR overview: Partial Response, share of evaluable patients ([3]; All, with gem/cis): (33.3%)
ORR overview: SD (≥6 weeks), patients ([3]; All, with gem/cis): 12
DCR overview: Complete Response, patients [3, 8]: 0
DCR overview: Non-responders, patients [3, 8]: 1
DCR overview: PD, patients [3, 8]: 0
DCR overview: Partial Response, patients [3, 8]: 4
DCR overview: Responders, patients [3, 8]: 10
DCR overview: Responders, share of evaluable patients [3, 8]: (90.9%)
DCR overview: SD (≤12 weeks), patients [3, 8]: 1
DCR overview: SD (≥12 weeks), patients [3, 8]: 6
ORR overview: Complete Response, patients [3, 8]: 0
ORR overview: PD, patients [3, 8]: 0
ORR overview: Partial Response, patients [3, 8]: 4
ORR overview: Partial Response, share of evaluable patients [3, 8]: (36.4%)
ORR overview: SD (≥6 weeks), patients [3, 8]: 7
DCR overview: Complete Response, patients [3, 9]: 0
DCR overview: Non-responders, patients [3, 9]: 3
DCR overview: PD, patients [3, 9]: 0
DCR overview: Partial Response, patients [3, 9]: 3
DCR overview: Responders, patients [3, 9]: 7
DCR overview: Responders, share of evaluable patients [3, 9]: (70.0%)
DCR overview: SD (≤12 weeks), patients [3, 9]: 1
DCR overview: SD (≥12 weeks), patients [3, 9]: 4
ORR overview: Complete Response, patients [3, 9]: 0
ORR overview: PD, patients [3, 9]: 0
ORR overview: Partial Response, patients [3, 9]: 3
ORR overview: Partial Response, share of evaluable patients [3, 9]: (30%)
ORR overview: SD (≥6 weeks), patients [3, 9]: 5
Antitumor activity ([3]; both 200 mg and 300 mg cohorts, Varlitinib plus gem/cis): Antitumor activity was observed
Patients with partial response per RECIST v1.1 ([3]; both cohorts, with gem/cis): 7 patients
Patients with stable disease more than 12 weeks ([3]; both cohorts, with gem/cis): 10 patients
All-grade adverse event: anaemia ([3]; human, in vivo): 33%
All-grade adverse event: decreased appetite ([3]; human, in vivo): 38%
All-grade adverse event: diarrhoea ([3]; human, in vivo): 38%
All-grade adverse event: nausea ([3]; human, in vivo): 38%
All-grade adverse event: neutrophil decreased ([3]; human, in vivo): 38%
All-grade adverse event: platelet decreased ([3]; human, in vivo): 52%
Dose limiting toxicities observed, number of patients ([3]; human, in vivo): 3 patients
Grade ≥3 adverse event: anaemia ([3]; human, in vivo): 19%
Grade ≥3 adverse event: neutrophil decreased ([3]; human, in vivo): 33%
Grade ≥3 adverse event: platelet decreased ([3]; human, in vivo): 29%
Disease control rate ([3]; with gem/cis): 81.0%
Decrease in size of liver tumours [4, 10]: up to 23%
Tumour marker CA 19-9 after treatment [4, 10]: ~250 U/ml
Tumour marker CA 19-9, starting level ([4]; level from which the marker fell): ~900 U/ml
Safety and tolerability [5]: safe and tolerated without any unexpected adverse events
Reduction in tumor size, best response from baseline ([6]; 9 cycles Varlitinib 400 mg BID with mFOLFOX6, then 9 cycles monotherapy): 53%
Tumor assessment status [6]: partial response
Therapeutic activity of combination versus either entity alone [7]: more therapeutic activity than either entity alone
